These results are taken from paper PMC9965906, “Discovery and Development Strategies for SARS-CoV-2 NSP3 Macrodomain Inhibitors” (Pathogens, 2023).

“And” between values parts separate entries of the source, which are not always exact repeats. Equal values may be shown once.

In the experiment the target is SARS-CoV-2 NSP3 Mac1 (Severe acute respiratory syndrome coronavirus 2, UniProt P0DTD1). Briefly: biochemical. The format is binding. Conditions: for NSP3 Mac1 inhibition at 50 µM (%) / inhibition at 50 µM: FDA-approved compound library primary screen, single shot.
Where [1] appears, read: MIDAS compound library primary screen.
Where [2] appears, read: BioAscent virtual screening hit compounds, duplicate.

By inhibition is commonly meant the drop in the measured response relative to a control, in per cent. `O=C(Nc1ccc2cc[nH]c2c1)c1csc(NCC2CCCO2)n1` (centres unmarked) [ARUK4000671-001-001, O=C(Nc1ccc2cc[nH]c2c1)c1csc(n1)NCC1CCCO1]: the inhibition at 25 µM under setting [1] was determined as 106%.

As for `NC(=O)[C@@H]1CCCN1C(=O)c1cc(-n2cccc2)ccc1Cl` [ARUK4000702-001-001, NC(=O)[C@@H]1CCCN1C(=O)c1cc(ccc1Cl)-n1cccc1], the inhibition at 25 µM under setting [1] stood at 45.8%. Consider `CC(=O)N1CCc2nc(N)c(C#N)c(-c3cccc(-c4ccco4)c3)c2C1` [ARUK4004310-001-001, CC(=O)N1CCc2nc(c(c(c2C1)-c1cccc(c1)-c1ccco1)C#N)N], for which the inhibition at 25 µM under setting [1] stood at 61%. As to `COc1ccc(C(=O)CC(=O)c2ccc(C(C)(C)C)cc2)cc1` [Avobenzone, reference compound], the “NSP3 Mac1 inhibition at 50 µM (%)” value turned out to be 62% and the inhibition at 50 µM was 61.8%. For orientation: Hill slope means a measure of the steepness of the concentration-response curve. For orientation: IC50 means the concentration needed to halve the response being measured. On to `C[C@H]1[C@H](NC(=O)/C(=N\OC(C)(C)C(=O)O)c2csc(N)n2)C(=O)N1S(=O)(=O)O` [Aztreonam, reference compound], for which the “NSP3 Mac1 inhibition at 50 µM (%)” value was 43% and the inhibition at 50 µM worked out at 42.8%. Where the note is “FDA-approved hit compounds, confirmatory HTRF assays”, this compound displayed a Hill slope of 1.05. In addition, where the note is “IC50”, the 50% inhibitory concentration (IC50) is 29.3 µM and 29 µM.

For `COc1cc(/C=C2\Oc3cc(O)ccc3C2=O)ccc1O` [BCC0002149, COc1cc(/C=C2\Oc3cc(O)ccc3C2=O)ccc1O], the inhibition at 25 µM under setting [2] came out at 47.2%.

For the compound `CN(C)S(=O)(=O)c1ccc2nc(C(=O)O)n(O)c2c1` [BCC0019152, CN(C)S(=O)(=O)c1ccc2nc(C(=O)O)n(O)c2c1], the inhibition at 25 µM under setting [2] worked out at 32.7%. Consider `O=c1cc(-c2ccc(Cl)cc2)oc2cc(OCC(O)CS(=O)(=O)c3ccc(Cl)cc3)ccc12` (centres unmarked) [BCC0030992, O=c1cc(-c2ccc(Cl)cc2)oc2cc(OCC(O)CS(=O)(=O)c3ccc(Cl)cc3)ccc12], for which, under setting [2], the inhibition at 25 µM came to 31.6%. Same read-out and setting: the same measure for `CCN1C(=O)c2cccc3c(S(=O)(=O)O)ccc1c23` [BCC0032304, CCN1C(=O)c2cccc3c(S(=O)(=O)O)ccc1c23]: 36.4%. On the same count and under the same terms, the value for `Cc1cccn2c(=O)c3cc(C(=O)O)n(C)c3nc12` [BCC0049478, Cc1cccn2c(=O)c3cc(C(=O)O)n(C)c3nc12] was 30.6%; that for `CN1C(=O)c2ccc(N3CCCC3)cc2C1=O` [BCC0067629, CN1C(=O)c2ccc(N3CCCC3)cc2C1=O] was 30.5%; that for `Oc1nc2ccccc2nc1-c1c[nH]c2ccccc12` [BCC0071692, Oc1nc2ccccc2nc1-c1c[nH]c2ccccc12] was 35%. The same measure, in the same setting: the same measure for `CN(C)c1ccc(-c2ccc3ccccc3n2)cc1` [BCC0083752, CN(C)c1ccc(-c2ccc3ccccc3n2)cc1]: 46.8%; for `Cc1cc2nn(-c3ccccc3)nc2cc1N` [BCC0086077, Cc1cc2nn(-c3ccccc3)nc2cc1N]: 67.8%; for `Nc1ccc2nc3c(=O)[nH]c(=O)[nH]c3nc2c1` [BCC0091906, Nc1ccc2nc3c(=O)[nH]c(=O)[nH]c3nc2c1]: 56.2%. Turning to `Oc1cc2ccccc2nc1-c1ccccc1` [BCC0093974, Oc1cc2ccccc2nc1-c1ccccc1], the inhibition at 25 µM under setting [2] came out at 38.6%. Same read-out and setting: the same measure for `Nc1ccc2oc(-c3cccnc3)nc2c1` [BCC0105824, Nc1ccc2oc(-c3cccnc3)nc2c1]: 30.1%. Turning to `O=c1c(O)c(-c2cccs2)oc2ccccc12` [BCC0111915, O=c1c(O)c(-c2cccs2)oc2ccccc12], the inhibition at 25 µM under setting [2] is 62.9%.

Turning to `COc1cc(/C=C/C(=O)c2cc3ccccc3o2)cc(Br)c1O` [BCC0117785, COc1cc(/C=C/C(=O)c2cc3ccccc3o2)cc(Br)c1O], the inhibition at 25 µM under setting [2] came out at 39.3%. On the same count and under the same terms, the value for `CC(=O)c1ccc(-c2ccc(N)cc2)o1` [BCC0119417, CC(=O)c1ccc(-c2ccc(N)cc2)o1] was 59.3%; that for `Nc1ccc2c(c1)C/C(=C/c1ccco1)C2=O` [BCC0121661, Nc1ccc2c(c1)C/C(=C/c1ccco1)C2=O] was 56.9%; that for `O=c1ccsn1-c1ccc(F)c(Cl)c1` [BCC0125028, O=c1ccsn1-c1ccc(F)c(Cl)c1] was 57.5%.
